Literature values, collected in patent US20080292666A1, “Preparation for Preventing or Treating Calcium Deficiency Conditions In Mammals” (priority 2005, published 2008).

How the values were obtained:
[1] = for effect of oral drenches on blood Ca-concentrations: aqueous solutions or slurries, cows
[2] = 75 g of calcium as paste, oral
[3] = tested on: parturient paresis in dairy cows; details: 120 g calcium as calcium propionate cylinders vs 216 g as oily calcium chloride solution

Row | Compound | rise of plasma Ca-concentrations after oral CaCl2 compared with i.v. ([1]; 50 g of Ca as CaCl2) | effect of oral drenches on blood Ca-concentrations [1] | total amount administered in 24 h not to be exceeded to avoid severe metabolic acidosis ([1]; oral, 24 h (120 g of Ca)) [g] | persistence of the increase in plasma calcium [2] | rapidity of plasma calcium increase [2] | effectiveness in the prevention of milk fever [3]
1 | [Ca+2].[Cl-].[Cl-] [calcium chloride] | raised plasma Ca-concentrations to the same extent as 4° g. of Ca as CaCl2 given i.v. | increased blood Ca-concentrations more quickly than did Ca-propionate | ≤ 288 |  |  | 
2 | CCC(=O)[O-].CCC(=O)[O-].[Ca+2] [calcium propionate] |  | effects lasted longer |  | sustained for a longer period | did not increase plasma calcium as rapidly as 75° g. calcium as CaCl2 | as effective in the prevention of milk fever as was treatment with calcium chloride
